Measurements from patent US12558351B2, “Compositions and methods for enhancing cancer immune checkpoint therapy” (DUKE UNIVERSITY, priority 2019, dated 2026).

Columns and labels:
p-TBK [1] = experiment: Western blot of p-TBK in B16 cells; type: cell-based, mouse
Protocol: (§1) Cells lysates were boiled in sodium dodecyl sulfate (SDS) sample loading buffer, resolved by 10% SDS-polyacrylamide gel electrophoresis (SDS-PAGE) and transferred to nitrocellulose. The membranes were blocked in 5% milk in Tris-buffered saline and Tween 20 (TBST; 10 mM Tris-HCl [pH 8.0], 150 mM NaCl, 0.1% Tween 20) for 1 hr at room temperature. After washing twice with TBST, the membranes were incubated with appropriate primary antibodies in BSA/TBST for overnight and then washed three times with TBST, probed with horseradish […] anti-immunoglobulin (1:5000 dilution) for 1 hr at room temperature. After three washes with TBST, immunoreacted products were visualized using enhanced chemiluminescence reagent and autoradiography.

ATM kinase = ATM kinase (Homo sapiens, UniProt Q13315); conditions: Durant et al. Sci Adv 2018; cited from earlier work
Chain of ATM kinase (Q13315 whole entry): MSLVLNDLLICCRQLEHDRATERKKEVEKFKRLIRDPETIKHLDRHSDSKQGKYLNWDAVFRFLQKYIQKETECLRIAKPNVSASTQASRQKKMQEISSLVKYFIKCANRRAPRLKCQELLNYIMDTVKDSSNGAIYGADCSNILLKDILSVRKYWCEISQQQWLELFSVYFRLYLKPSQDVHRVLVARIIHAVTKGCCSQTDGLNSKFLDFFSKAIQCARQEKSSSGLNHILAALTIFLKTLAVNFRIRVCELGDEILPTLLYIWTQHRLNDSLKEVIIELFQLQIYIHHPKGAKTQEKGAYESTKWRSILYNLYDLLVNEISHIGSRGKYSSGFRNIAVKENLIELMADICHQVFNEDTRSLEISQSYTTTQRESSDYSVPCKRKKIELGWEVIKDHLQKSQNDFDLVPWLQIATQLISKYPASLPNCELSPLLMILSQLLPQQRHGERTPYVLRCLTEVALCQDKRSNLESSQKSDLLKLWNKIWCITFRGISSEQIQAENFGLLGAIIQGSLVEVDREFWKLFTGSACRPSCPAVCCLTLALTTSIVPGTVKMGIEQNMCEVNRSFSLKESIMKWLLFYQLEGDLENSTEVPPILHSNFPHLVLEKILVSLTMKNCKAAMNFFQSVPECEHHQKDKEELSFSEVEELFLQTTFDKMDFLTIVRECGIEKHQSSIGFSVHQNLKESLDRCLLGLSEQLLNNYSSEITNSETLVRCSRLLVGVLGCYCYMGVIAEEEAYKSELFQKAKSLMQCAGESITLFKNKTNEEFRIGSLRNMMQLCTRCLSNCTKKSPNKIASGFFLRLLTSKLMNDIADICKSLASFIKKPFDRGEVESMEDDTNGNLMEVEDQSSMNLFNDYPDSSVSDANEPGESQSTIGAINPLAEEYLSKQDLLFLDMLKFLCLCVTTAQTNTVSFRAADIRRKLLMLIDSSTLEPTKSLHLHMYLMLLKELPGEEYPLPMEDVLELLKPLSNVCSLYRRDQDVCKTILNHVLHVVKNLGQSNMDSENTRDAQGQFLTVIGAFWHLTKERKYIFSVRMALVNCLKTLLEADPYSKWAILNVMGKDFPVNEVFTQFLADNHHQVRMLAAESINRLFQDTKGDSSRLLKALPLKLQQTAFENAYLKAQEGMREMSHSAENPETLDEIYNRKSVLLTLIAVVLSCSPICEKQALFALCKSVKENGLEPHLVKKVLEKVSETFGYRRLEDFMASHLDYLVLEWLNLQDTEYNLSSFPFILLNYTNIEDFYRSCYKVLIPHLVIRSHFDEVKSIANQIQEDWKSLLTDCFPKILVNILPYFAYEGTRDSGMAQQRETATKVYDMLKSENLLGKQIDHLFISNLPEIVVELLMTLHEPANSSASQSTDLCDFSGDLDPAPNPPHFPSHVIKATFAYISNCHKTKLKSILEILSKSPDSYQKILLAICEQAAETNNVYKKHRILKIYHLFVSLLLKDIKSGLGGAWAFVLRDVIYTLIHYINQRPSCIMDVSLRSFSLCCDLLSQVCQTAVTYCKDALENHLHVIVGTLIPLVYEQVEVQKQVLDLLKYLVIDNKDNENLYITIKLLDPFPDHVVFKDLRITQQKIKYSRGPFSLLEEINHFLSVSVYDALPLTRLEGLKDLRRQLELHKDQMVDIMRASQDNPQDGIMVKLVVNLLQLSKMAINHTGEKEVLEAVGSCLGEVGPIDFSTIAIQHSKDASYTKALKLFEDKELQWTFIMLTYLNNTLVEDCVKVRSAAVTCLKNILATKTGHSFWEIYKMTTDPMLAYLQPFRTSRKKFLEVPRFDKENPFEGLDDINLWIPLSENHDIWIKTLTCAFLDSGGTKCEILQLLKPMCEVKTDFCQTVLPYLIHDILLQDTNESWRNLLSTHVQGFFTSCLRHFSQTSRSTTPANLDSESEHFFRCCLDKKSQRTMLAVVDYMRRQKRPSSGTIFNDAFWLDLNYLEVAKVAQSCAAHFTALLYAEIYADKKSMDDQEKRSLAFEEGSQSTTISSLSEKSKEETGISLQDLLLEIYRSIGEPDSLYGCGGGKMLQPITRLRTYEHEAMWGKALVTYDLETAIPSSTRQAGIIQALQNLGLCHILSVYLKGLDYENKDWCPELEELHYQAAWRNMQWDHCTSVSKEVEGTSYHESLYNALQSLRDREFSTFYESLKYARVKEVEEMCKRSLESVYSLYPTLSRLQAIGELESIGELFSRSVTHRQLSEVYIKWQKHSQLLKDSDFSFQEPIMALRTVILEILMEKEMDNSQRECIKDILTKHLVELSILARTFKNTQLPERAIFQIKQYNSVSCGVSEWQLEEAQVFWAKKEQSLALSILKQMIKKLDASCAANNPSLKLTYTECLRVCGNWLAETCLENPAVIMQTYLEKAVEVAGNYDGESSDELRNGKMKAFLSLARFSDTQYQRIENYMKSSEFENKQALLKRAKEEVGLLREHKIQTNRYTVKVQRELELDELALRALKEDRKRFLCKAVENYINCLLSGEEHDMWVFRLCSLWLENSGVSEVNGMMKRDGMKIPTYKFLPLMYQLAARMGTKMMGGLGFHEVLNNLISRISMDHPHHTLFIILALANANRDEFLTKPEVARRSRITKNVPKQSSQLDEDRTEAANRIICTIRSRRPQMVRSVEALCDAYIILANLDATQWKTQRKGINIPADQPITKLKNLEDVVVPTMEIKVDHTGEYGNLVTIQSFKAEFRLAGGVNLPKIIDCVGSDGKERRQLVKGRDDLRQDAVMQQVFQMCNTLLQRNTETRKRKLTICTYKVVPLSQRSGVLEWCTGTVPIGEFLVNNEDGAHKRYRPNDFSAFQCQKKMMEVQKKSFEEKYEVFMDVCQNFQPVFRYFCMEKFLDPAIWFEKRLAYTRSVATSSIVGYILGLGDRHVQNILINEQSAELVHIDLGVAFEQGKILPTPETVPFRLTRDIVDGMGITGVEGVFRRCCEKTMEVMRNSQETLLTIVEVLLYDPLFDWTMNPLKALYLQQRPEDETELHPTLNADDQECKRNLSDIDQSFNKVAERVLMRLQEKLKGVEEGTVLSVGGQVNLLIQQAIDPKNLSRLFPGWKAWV

B16F10 melanoma = experiment: Tumor growth delay and survival, B16F10 melanoma in C57BL/6 mice; type: in vivo, mouse
Protocol: (§2) All animal experiments conducted in this study were approved by Duke University Institutional Animal Use and Care Committee. C57BL/6J and Balb/C, mice were purchased from The Jackson Laboratory. NSG mice were purchased from Division of Laboratory Animal Resources (DLAR) of Duke University. Prior to tumor cell injection, age-matched 6-8 weeks old mice were shaved at one of the flanks. Tumor cells were then injected into shaved flanks subcutaneously with Lenti-CRISPRv2 modified control or target gene-specific knockout tumor cells. Tumor volumes were measured every 2-3 days and calculated by the formula: […]. The mice were sacrificed when tumors reached 2000 mm^3.
(§3) For antibody treatments, mice were given 100 μg antibody via intraperitoneal (i.p.) injection at day 6, 9, 12 post tumor cells injection using following antibodies: anti-PD1 (clone 29F.1A12) or isotype (clone 2A3) from BioXCell.

[2] = tested on: mitochondrial DNA (mtDNA) release; experiment: Q-PCR of mtDNA in digitonin cytosolic extracts of B16F10 cells; type: cell-based, mouse; conditions: 1 μM AZD1390 for 48 hours, FIGS. 59, 60
glioma = conditions: preclinical models; Durant et al. Sci Adv 2018; cited from earlier work
cGAS-STING = experiment: Ethidium bromide mtDNA depletion, cGAS-STING activation in B16F10 cells; type: cell-based, mouse; conditions: wild-type B16F10, 100 ng/ml ethidium bromide 20 days, then 1 μM AZD1390 48 hr; FIG. 103
Protocol: as §1
A previously published protocol was used (White, M. J. et al. Cell (2014) doi:10.1016/j.cell1.2014.11.036). Vector control, ATM KO and wild-type B16 cells were cultured in Dulbecco's modified Eagle's medium (DMEM) with 10% FBS. About 100 ng/ml ethidium bromide was added to the medium for 20 days before the cells were harvested for experiments.
Total RNA was extracted from cells by use of RNeasy Mini Kit (Qiagen) according to manufacturer's instructions. […] Quantitative real-time PCR was performed using Quanti Test SYBR Green PCR Master Mix Kit (Qiagen). […]

[3] = tested on: pro-inflammatory cytokine genes involved in cellular innate immunity; experiment: Q-RT-PCR of cytokine mRNA in wild type 4T1 cells treated with ATM inhibitors; type: cell-based, mouse; conditions: FIG. 10
Protocol: (§4) Total RNA was extracted from cells by use of RNeasy Mini Kit (Qiagen) according to manufacturer's instructions. RNA was subjected to cDNA synthesis with random hexamer primers using Superscript II reverse transcriptase (Invitrogen). Quantitative real-time PCR was performed using Quanti Test SYBR Green PCR Master Mix Kit (Qiagen). Primers used for different target genes are listed in the Sequences section herein.

4T1 tumor = experiment: Tumor growth delay and survival, 4T1 tumors in Balb/c mice; type: in vivo; conditions: 4T1, Balb/c; anti-PD1 100 μg/mouse days 6, 9, 12 or AZD1390 10 mg/kg daily days 4-14; FIGS. 27, 28
Protocol: as §2, §3

ISGs = experiment: qRT-PCR of ISGs in B16F10 cells; type: cell-based, mouse
Protocol: as §4

p-TBK [4] = experiment: Western blot of p-TBK in MDA-MB-231 cells; type: cell-based; conditions: human MDA-MB-231 cells, Ku55933 for 6 hours; FIG. 91
Protocol: as §1

SMILES | phosphorylation of TBK (p-TBK [1]; AZD1390 at indicated concentrations for 48 hrs, FIG. 45) | ATM kinase inhibitor character (ATM kinase) | enhancement of anti-tumor efficacy of the anti-PD1 antibody (B16F10 melanoma; B16F10, C57BL/6, AZD1390 10 mg/kg daily days 4-14 plus anti-PD1 100 μg/mouse days 6, 9, 12, FIGS. 25, 26) | enhancement of tumor suppression mediated by an anti-PD1 antibody (B16F10 melanoma; B16F10 melanoma, anti-PD1 100 μg/mouse and AZD1390 2.5 mg/Kg, FIG. 11) | effect on tumor growth, single agent (B16F10 melanoma; B16F10 tumors, C57BL/6, AZD1390 alone 10 mg/kg daily days 4-14, FIG. 25) | mitochondrial DNA (mtDNA) release [2] | enhancement of radiotherapy of glioma (glioma) | cGAS-STING activation (pTBK) induced by AZD1390 after EtBr-induced depletion of mtDNA (cGAS-STING) | pro-inflammatory cytokine gene expression [3] | effect on tumor growth, single agent (4T1 tumor) | expression of ISGs (ISGs; 1 μM AZD1390 for 48 hrs, FIG. 46) | phosphorylation of TBK (p-TBK [1]; Ku55933 indicated concentrations 6 hours, or 5 μM at indicated times, FIGS. 88, 89) | expression of p-TBK (p-TBK [4]) | expression of ISGs (ISGs; 10 μM Ku55933 for 9 hours (IFIT1, CCL5), FIG. 90)
CC(C)n1c(=O)n(C)c2cnc3cc(F)c(-c4ccc(OCCCN5CCCCC5)nc4)cc3c21 [AZD1390] | induced increased phosphorylation of TBK | potent and selective | significantly enhanced | significantly enhanced tumor suppression | almost negligible effect | induced mitochondrial DNA (mtDNA) release | significantly enhanced radiotherapy of glioma | abrogated | induce the pro-inflammatory cytokine genes | more significant tumor-suppressive effect | induced expression of ISGs | – | – | –
O=c1cc(-c2cccc3c2Sc2ccccc2S3)oc(N2CCOCC2)c1 [Ku55933] | – | – | – | – | – | – | – | – | induce the pro-inflammatory cytokine genes | – | – | induced increased phosphorylation of TBK | induced expression of p-TBK | induced expression of ISGs
